Key:
Assay type in all cases: in vivo
weeds = test: Pre-emergence test (greenhouse), activity against weeds; settings: in words
Method in brief: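 Compound formulated in acetone with alkylaryl polyglycol ether emulsifier, diluted in water, and watered onto soil about 24 h after sowing, dosed by application rate per unit area. Damage rated after three weeks as % versus untreated control (0% = no action).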

Ambrosia = test: Pre-emergence test/Greenhouse, Ambrosia; settings: after three weeks
Method in brief: (§1)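 Seeds sown in normal soil were watered about 24 h later with an aqueous emulsion of compound (solvent plus emulsifier), keeping water volume per area constant so dose is set by application rate per unit area. Damage was rated after three weeks as % versus untreated control (0% = no action).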

Solanum = test: Pre-emergence test/Greenhouse, Solanum; settings: after three weeks
Method in brief: as §1

Soya beans = test: Pre-emergence test/Greenhouse, Soya beans; settings: in vivo
Method in brief: as §1

Lolium = test: Pre-emergence test/Greenhouse, Lolium; settings: after three weeks
Method in brief: as §1

Sorghum = test: Pre-emergence test/Greenhouse, Sorghum; settings: after three weeks
Method in brief: as §1

Poa = test: Pre-emergence test/Greenhouse, Poa; settings: after three weeks
Method in brief: as §1

Maize = test: Pre-emergence test/Greenhouse, Maize; settings: in vivo
Method in brief: as §1

Matricaria = test: Pre-emergence test/Greenhouse, Matricaria; settings: after three weeks
Method in brief: as §1

| Compound | activity against weeds (weeds) | degree of damage to the plants (% damage vs untreated control), Soya beans (Soya beans) | degree of damage to the plants (% damage vs untreated control), Maize (Maize) | degree of damage to the plants (% damage vs untreated control), Ambrosia (Ambrosia; 60 g of ai./ha) | degree of damage to the plants (% damage vs untreated control), Solanum (Solanum; 60 g of ai./ha) | degree of damage to the plants (% damage vs untreated control), Lolium (Lolium; 60 g of ai./ha) | degree of damage to the plants (% damage vs untreated control), Sorghum (Sorghum; 60 g of ai./ha) | degree of damage to the plants (% damage vs untreated control), Poa (Poa; 60 g of ai./ha) | degree of damage to the plants (% damage vs untreated control), Matricaria (Matricaria; 60 g of ai./ha) | also measured |
| --- | --- | --- | --- | --- | --- | --- | --- | --- | --- | --- |
| C#CCSc1nn(C(=O)NS(=O)(=O)c2c(C)csc2C(=O)OC)c(=O)n1C [Example 51] | very strong activity against weeds | 30% | 0% | – | – | – | – | – | – | degree of damage to the plants (% damage vs untreated control), Ambrosia (Ambrosia; 125 g of ai./ha): 95%; degree of damage to the plants (% damage vs untreated control), Solanum (Solanum; 125 g of ai./ha): 95%; degree of damage to the plants (% damage vs untreated control), Lolium (Lolium; 125 g of ai./ha): 80%; degree of damage to the plants (% damage vs untreated control), Sorghum (Sorghum; 125 g of ai./ha): 80%; degree of damage to the plants (% damage vs untreated control), Poa (Poa; 125 g of ai./ha): 80%; degree of damage to the plants (% damage vs untreated control), Matricaria (Matricaria; 125 g of ai./ha): 95% |
| CCOC(=O)c1scc(C)c1S(=O)(=O)NC(=O)n1nc(C(C)C)n(C)c1=O [Example 68] | very strong activity against weeds | 10% | 5% | – | – | – | – | – | – | degree of damage to the plants (% damage vs untreated control), Ambrosia (Ambrosia; 125 g of ai./ha): 95%; degree of damage to the plants (% damage vs untreated control), Solanum (Solanum; 125 g of ai./ha): 95%; degree of damage to the plants (% damage vs untreated control), Lolium (Lolium; 125 g of ai./ha): 80%; degree of damage to the plants (% damage vs untreated control), Sorghum (Sorghum; 125 g of ai./ha): 60%; degree of damage to the plants (% damage vs untreated control), Poa (Poa; 125 g of ai./ha): 90%; degree of damage to the plants (% damage vs untreated control), Matricaria (Matricaria; 125 g of ai./ha): 100% |
| CCOc1nn(C(=O)NS(=O)(=O)c2c(Cl)cccc2C(=O)OC)c(=O)n1C [Example 129] | very strong activity against weeds | 10% | 10% | – | – | – | – | – | – | degree of damage to the plants (% damage vs untreated control), Ambrosia (Ambrosia; 250 g of ai./ha): 60%; degree of damage to the plants (% damage vs untreated control), Solanum (Solanum; 250 g of ai./ha): 95%; degree of damage to the plants (% damage vs untreated control), Lolium (Lolium; 250 g of ai./ha): 95%; degree of damage to the plants (% damage vs untreated control), Sorghum (Sorghum; 250 g of ai./ha): 90%; degree of damage to the plants (% damage vs untreated control), Poa (Poa; 250 g of ai./ha): 95%; degree of damage to the plants (% damage vs untreated control), Matricaria (Matricaria; 250 g of ai./ha): 90% |
| COC(=O)c1cccc(Cl)c1S(=O)(=O)NC(=O)n1nc(SC)n(C)c1=O [Example 130] | very strong activity against weeds | 0% | 10% | – | – | – | – | – | – | degree of damage to the plants (% damage vs untreated control), Ambrosia (Ambrosia; 250 g of ai./ha): 95%; degree of damage to the plants (% damage vs untreated control), Solanum (Solanum; 250 g of ai./ha): 95%; degree of damage to the plants (% damage vs untreated control), Lolium (Lolium; 250 g of ai./ha): 95%; degree of damage to the plants (% damage vs untreated control), Sorghum (Sorghum; 250 g of ai./ha): 80%; degree of damage to the plants (% damage vs untreated control), Poa (Poa; 250 g of ai./ha): 95%; degree of damage to the plants (% damage vs untreated control), Matricaria (Matricaria; 250 g of ai./ha): 95% |
| CCOC(=O)c1cccc(Cl)c1S(=O)(=O)NC(=O)n1nc(SC)n(C)c1=O [Example 131] | very strong activity against weeds | 0% | 0% | – | – | – | – | – | – | degree of damage to the plants (% damage vs untreated control), Ambrosia (Ambrosia; 250 g of ai./ha): 95%; degree of damage to the plants (% damage vs untreated control), Solanum (Solanum; 250 g of ai./ha): 95%; degree of damage to the plants (% damage vs untreated control), Lolium (Lolium; 250 g of ai./ha): 95%; degree of damage to the plants (% damage vs untreated control), Sorghum (Sorghum; 250 g of ai./ha): 90%; degree of damage to the plants (% damage vs untreated control), Poa (Poa; 250 g of ai./ha): 90%; degree of damage to the plants (% damage vs untreated control), Matricaria (Matricaria; 250 g of ai./ha): 80% |
| CCCOC(=O)c1cccc(Cl)c1S(=O)(=O)NC(=O)n1nc(OCC)n(C)c1=O [Example 134] | very strong activity against weeds | 20% | 0% | – | – | – | – | – | – | degree of damage to the plants (% damage vs untreated control), Ambrosia (Ambrosia; 500 g of ai./ha): 80%; degree of damage to the plants (% damage vs untreated control), Solanum (Solanum; 500 g of ai./ha): 95%; degree of damage to the plants (% damage vs untreated control), Lolium (Lolium; 500 g of ai./ha): 95%; degree of damage to the plants (% damage vs untreated control), Sorghum (Sorghum; 500 g of ai./ha): 70%; degree of damage to the plants (% damage vs untreated control), Poa (Poa; 500 g of ai./ha): 90%; degree of damage to the plants (% damage vs untreated control), Matricaria (Matricaria; 500 g of ai./ha): 90% |
| CCOc1nn(C(=O)NS(=O)(=O)c2c(OC)cccc2C(=O)OC)c(=O)n1C [Example 136] | very strong activity against weeds | 20% | 30% | – | – | – | – | – | – | degree of damage to the plants (% damage vs untreated control), Ambrosia (Ambrosia; 125 g of ai./ha): 80%; degree of damage to the plants (% damage vs untreated control), Solanum (Solanum; 125 g of ai./ha): 95%; degree of damage to the plants (% damage vs untreated control), Lolium (Lolium; 125 g of ai./ha): 95%; degree of damage to the plants (% damage vs untreated control), Sorghum (Sorghum; 125 g of ai./ha): 90%; degree of damage to the plants (% damage vs untreated control), Poa (Poa; 125 g of ai./ha): 95%; degree of damage to the plants (% damage vs untreated control), Matricaria (Matricaria; 125 g of ai./ha): 90% |
| COC(=O)c1cccc(C)c1S(=O)(=O)[N-]C(=O)n1nc(SC)n(C)c1=O.[Na+] [Example 145] | very strong activity against weeds | 0% | 0% | 95% | 95% | 95% | 95% | 95% | 60% | – |
| C=CCOc1nn(C(=O)NS(=O)(=O)c2c(C)cccc2C(=O)OC)c(=O)n1C [Example 148] | very strong activity against weeds | 0% | 40% | 80% | 95% | 80% | 90% | 95% | 80% | – |
| COC(=O)c1cccc(C)c1S(=O)(=O)NC(=O)n1nc(SCC(F)(F)F)n(C2CC2)c1=O [Example 149] | very strong activity against weeds | 30% | 0% | – | – | – | – | – | – | degree of damage to the plants (% damage vs untreated control), Ambrosia (Ambrosia; 125 g of ai./ha): 95%; degree of damage to the plants (% damage vs untreated control), Solanum (Solanum; 125 g of ai./ha): 95%; degree of damage to the plants (% damage vs untreated control), Lolium (Lolium; 125 g of ai./ha): 95%; degree of damage to the plants (% damage vs untreated control), Sorghum (Sorghum; 125 g of ai./ha): 80%; degree of damage to the plants (% damage vs untreated control), Poa (Poa; 125 g of ai./ha): 95%; degree of damage to the plants (% damage vs untreated control), Matricaria (Matricaria; 125 g of ai./ha): 95% |
| CCCc1nn(C(=O)[N-]S(=O)(=O)c2c(C)cccc2C(=O)OC)c(=O)n1C.[Na+] [Example 154] | very strong activity against weeds | 0% | 0% | 70% | 90% | 95% | 95% | 95% | 70% | – |
| COC(=O)c1cccc(C)c1S(=O)(=O)NC(=O)n1nc(SC)n(OC)c1=O [Example 156] | very strong activity against weeds | 10% | 0% | 70% | 70% | 70% | 70% | 90% | 95% | – |
| CCSc1nn(C(=O)NS(=O)(=O)c2c(C)cccc2C(=O)OC)c(=O)n1OC [Example 157] | very strong activity against weeds | 20% | 0% | 95% | 90% | 90% | 80% | 80% | 100% | – |
| C#CCSc1nn(C(=O)NS(=O)(=O)c2c(C)cccc2C(=O)OC)c(=O)n1C1CC1 [Example 160] | very strong activity against weeds | 10% | 30% | 90% | 90% | 90% | 60% | 90% | 95% | – |

Source: patent US6441195B1, “Substituted sulphonylamino(thio) carbonyl compounds” (Bayer Aktiengesellschaft, priority 1995, dated 2002)
